Reference: publication PMC5537869, “Role of Zucchini and Its Distinctive Components in the Modulation of Degenerative Processes: Genotoxicity, Anti-Genotoxicity, Cytotoxicity and Apoptotic Effects” (Nutrients, 2017)
Values joined by “and” are separate entries in the source; they are usually repeats but may differ in a detail not shown here. Equal values may be shown once.

Key:
[1] = tested on: HL60 cells; test: Nucleosomal DNA fragmentation assay; format: cell-based, human; details: HL60, 5 h, same concentrations as in the cytotoxicity assay, agarose gel
Method: The HL60 tumoral cell line was used with the aim of analyse the apoptotic induction. […] A non-treated cells control was included for each experiment. For DNA fragmentation, treated cells were collected, were centrifuged at 4000 rpm for 5 min and washed with PBS. […] The agarose gels were run at 50 V for 90 min in TBE (Tris/Borate/EDTA) buffer and then observed and photographed under UV light. For Annexin V-PI test, Annexin V Apoptosis Detection Kit ([…] Biotech S.L., Cordoba, Spain) was used. Briefly, cells were resuspended in 100 μL of Binding buffer solution 1× and subsequently, 5 μL AnnexinV-FITC (Fluorescein isothiocyanate) and 10 μL propidium iodide were added, and samples were incubated for 10 min at room temperature in darkness, and flow cytometry (Beckman Coulter Inc., Brea, CA, USA) was then used to analyze the rate of apoptosis.

[2] = tested on: C918 cell line; set-up: method as in PMID 24223611; details: C918 human uveal melanoma cell line; read-out: IC50 (cell viability); cited from earlier work
[3] = tested on: HL60 cells; test: Cytotoxicity assay, trypan blue exclusion; format: cell-based, human; details: HL60, 72 h, trypan blue exclusion, at the tested concentrations
Method: Therefore, all the cells that exclude the dye are viable. Non-viable cells stained purple-violet, whereas viable ones remained unstained. Trypan blue was added to cell cultures at a 1:1 ratio, and 20 μL of cell suspension was loaded into a Neubauer chamber. The cells were counted under an inverted microscope at 100× magnification. […] Curves are expressed as survival percentage with respect to controls growing at 72 h. All data represent the average of at least three independent experiments.

[4] = tested on: Drosophila melanogaster transheterozygous larvae; test: Anti-genotoxicity (combined treatment with hydrogen peroxide 120 mM), Drosophila wing spot test (SMART); format: in vivo; set-up: key to Mann-Whitney Test: n.s.: non-significant; details: for Large Spots (>2 Cells) m = 5 / Small Spots (1–2 Cells) m = 2 / Total Spots m = 2 / Twin Spots m = 5 / Mann-Whitney Test: combined treatment with H2O2 120 mM; for Mann-Whitney Test: vs negative control
Method: (§1) The principles and basic procedures for the Drosophila wing spot test have been described by Graf et al., and in previous works of our group. Two strains of flies carrying wing genetic markers on the left arm of chromosome 3: multiple wing […] used. The transheterozygous larvae were obtained by crossing […] (Third Multiple 3), Bd^S(Beaded […]) virgin females. Hybrid eggs derived from crossing optimally fertile flies were collected over an 8 h period. […] Concurrent negative controls with the solvent alone (water) and positive controls with hydrogen peroxide (120 mM) were also run. Anti-genotoxicity tests were carried out by mixing the mutagen (hydrogen peroxide, 120 mM) with the compounds solution. After emergence, adult flies were collected from the treatment vials and stored in 70% ethanol. The wings of the flies were removed under a stereomicroscope using a pair of entomological tweezers, similar number of males and females-wings were mounted in Faure's solution on microscope slides and inspected, under 400× magnification, for the presence of clones of cells. The mutant clones were classified into three types: […] The appearance of twin spots indicated the recombinogenic activity of the chemotherapeutic agent (Figure 1). The frequencies of spots per fly of treated series were compared with its corresponding negative control series (water) to analyze Somatic Mutation and Recombination Test (SMART) data. For maximum power, statistical analyses were done exclusively for the total number of spots recovered. The non-parametric U test of Mann, Whitney and Wilcoxon was used to avoid weak positive and inconclusive results on SMART and to achieve a well-defined statistical diagnosis whether a given treatment should be regarded as genotoxic or not. The inhibition percentages (IP) were calculated using the total spots per wing with the following formula [16, 36]: IP = ((Genotoxine alone - Genotoxine plus active compound)/Genotoxine alone) × 100

[5] = tested on: SP6.5 cell line; set-up: method as in PMID 24223611; details: SP6.5 human uveal melanoma cell line; read-out: IC50 (cell viability); cited from earlier work
[6] = tested on: normal ocular cells (uveal melanocytes, retinal pigment epithelial cells, and scleral fibroblasts); set-up: method as in PMID 24223611; details: highest level tested 300 μM; cited from earlier work
[7] = tested on: Drosophila melanogaster transheterozygous larvae; test: Genotoxicity (single treatment), Drosophila wing spot test (SMART); format: in vivo; set-up: key to Mann-Whitney Test: n.s.: non-significant; details: single treatment; for Mann-Whitney Test: vs negative control
Method: as §1

[8] = tested on: HL60 cells; details: cited from earlier work
[9] = tested on: Drosophila melanogaster; set-up: method as in PMID 19937581; details: SMART, 1, 2 and 4 mg/mL; cited from earlier work
[10] = tested on: HL60 cells; test: Annexin V-PI apoptosis assay (flow cytometry); format: cell-based, human; details: HL60, 5 h, highest concentrations
Method: The HL60 tumoral cell line was used with the aim of analyse the apoptotic induction. HL60 cells (1.5 × 10^6 cells) were treated with the same concentrations of the different compounds for 5 h. A non-treated cells control was included for each experiment. For DNA fragmentation, treated cells were collected, were centrifuged at 4000 rpm for 5 min and washed with PBS. The DNA was extracted using a commercial kit (MBL 243, Dominion mbl, Córdoba, Spain) and the resulting total DNA was treated with RNAse in order to eliminate false positive for 30 min at 37 °C. Samples of 1.5 μg of DNA were mixed with loading buffer and loaded onto a pre-solidified 2% agarose gel containing ethidium bromide. The agarose gels were run at 50 V for 90 min in TBE (Tris/Borate/EDTA) buffer and then observed and photographed under UV light. For Annexin V-PI test, Annexin V Apoptosis Detection Kit (Canvax Biotech S.L., Cordoba, Spain) was used. Briefly, cells were resuspended in 100 μL of Binding buffer solution 1× and subsequently, 5 μL AnnexinV-FITC (Fluorescein isothiocyanate) and 10 μL propidium iodide were added, and samples were incubated for 10 min at room temperature in darkness, and flow cytometry (Beckman Coulter Inc., Brea, CA, USA) was then used to analyze the rate of apoptosis.

CC1=C(/C=C/C(C)=C/C=C/C(C)=C/C=C/C=C(C)/C=C/C=C(C)/C=C/C2=C(C)C[C@@H](O)CC2(C)C)C(C)(C)C[C@H](O)C1 [Zeaxanthin, zeaxanthin]
internucleosomal DNA fragmentation ladder pattern [1]: did not show any internucleosomal fragmentation ladder pattern | IC50 [2]: 28.7 µM | cytotoxic effect (tumoral viability) [3]: slight cytotoxic activities | Large Spots (>2 Cells) m = 5 ([4]; 0.0001 μM): 0.00 (0) clones per wing | Small Spots (1–2 Cells) m = 2 ([4]; 0.0001 μM): 0.03 (1) clones per wing | Total Spots m = 2 ([4]; 0.0001 μM): 0.05 (2) clones per wing | Twin Spots m = 5 ([4]; 0.0001 μM): 0.03 (1) clones per wing | Mann-Whitney Test ([4]; 0.0001 μM): n.s. | Large Spots (>2 Cells) m = 5 ([4]; 0.105 μM): 0.00 (0) clones per wing | Small Spots (1–2 Cells) m = 2 ([4]; 0.105 μM): 0.07 (2) clones per wing | Total Spots m = 2 ([4]; 0.105 μM): 0.07 (2) clones per wing | Twin Spots m = 5 ([4]; 0.105 μM): 0.00 (0) clones per wing | Mann-Whitney Test ([4]; 0.105 μM): n.s. | IC50 [5]: 40.8 µM | effect on viability of normal ocular cells [6]: did not affect the viability | Large Spots (>2 Cells) m = 5 ([7]; 0.0001 μM): 0.00 (0) clones per wing | Small Spots (1–2 Cells) m = 2 ([7]; 0.0001 μM): 0.05 (2) clones per wing | Total Spots m = 2 ([7]; 0.0001 μM): 0.05 (2) clones per wing | Twin Spots m = 5 ([7]; 0.0001 μM): 0.00 (0) clones per wing | Mann-Whitney Test ([7]; 0.0001 μM): n.s. | Large Spots (>2 Cells) m = 5 ([7]; 0.105 μM): 0.03 (1) clones per wing | Small Spots (1–2 Cells) m = 2 ([7]; 0.105 μM): 0.10 (4) clones per wing | Total Spots m = 2 ([7]; 0.105 μM): 0.15 clones per wing and 0.15 (6) clones per wing | Twin Spots m = 5 ([7]; 0.105 μM): 0.03 (1) clones per wing | Mann-Whitney Test ([7]; 0.105 μM): n.s.

CC1=C(/C=C/C(C)=C/C=C/C(C)=C/C=C/C=C(C)/C=C/C=C(C)/C=C/C2=C(C)CCCC2(C)C)C(C)(C)CCC1 [β-carotene]
internucleosomal DNA fragmentation ladder pattern [1]: did not show any internucleosomal fragmentation ladder pattern | ID50 [8]: 27 µM | inhibition at 0.0003 µM ([4]; Drosophila melanogaster, ip, 0.0003 μM, against H2O2 120 mM, read-out: inhibition percentage (IP) of genotoxicity): 100% | Large Spots (>2 Cells) m = 5 ([4]; 0.0003 μM): 0.00 (0) clones per wing | Small Spots (1–2 Cells) m = 2 ([4]; 0.0003 μM): 0.00 (0) clones per wing | Total Spots m = 2 ([4]; 0.0003 μM): 0.00 (0) clones per wing | Twin Spots m = 5 ([4]; 0.0003 μM): 0.00 (0) clones per wing | Mann-Whitney Test ([4]; 0.0003 μM): n.s. | Large Spots (>2 Cells) m = 5 ([4]; 0.0689 μM): 0.03 (1) clones per wing | Small Spots (1–2 Cells) m = 2 ([4]; 0.0689 μM): 0.08 (3) clones per wing | Total Spots m = 2 ([4]; 0.0689 μM): 0.11 (4) clones per wing | Twin Spots m = 5 ([4]; 0.0689 μM): 0.00 (0) clones per wing | Mann-Whitney Test ([4]; 0.0689 μM): n.s. | detoxification of the mutation induced by doxorubicin [9]: up to 95% | apoptosis by Annexin V/PI versus negative control [10]: induced apoptosis | Large Spots (>2 Cells) m = 5 ([7]; 0.0003 μM): 0.00 (0) clones per wing | Small Spots (1–2 Cells) m = 2 ([7]; 0.0003 μM): 0.08 (3) clones per wing | Total Spots m = 2 ([7]; 0.0003 μM): 0.08 (3) clones per wing | Twin Spots m = 5 ([7]; 0.0003 μM): 0.00 (0) clones per wing | Mann-Whitney Test ([7]; 0.0003 μM): n.s. | Large Spots (>2 Cells) m = 5 ([7]; 0.0689 μM): 0.03 (1) clones per wing | Small Spots (1–2 Cells) m = 2 ([7]; 0.0689 μM): 0.03 (1) clones per wing | Total Spots m = 2 ([7]; 0.0689 μM): 0.05 (2) clones per wing | Twin Spots m = 5 ([7]; 0.0689 μM): 0.00 (0) clones per wing | Mann-Whitney Test ([7]; 0.0689 μM): n.s.
